Read-outs that look alike come from different tables or passages of the source.
Experiments:
[1] = test system: Normal C57BL/6 female mice; assay: Toxicity assay: complete blood counts in mice treated with 4F-benzoyl-TN14003, ARA-C or both
Experimental: (§1) Lyophilized 4F-benzoyl-TN14003 was manufactured by MSD N.V. The compound was dissolved with water for injection (WFI) at a final stock concentration of 25 mg/ml and stored at −20° C. until use. Before injection to the mice, 4F-benzoyl-TN14003 was thawed and diluted with PBS to final concentration of 5 mg/ml. Actual dosing solutions were prepared by diluting the 5 mg/ml stock solution (total dose including salt) in PBS just before the injection. 4F-benzoyl-TN14003 was administered at a constant dose volume of 200 μL.
(§2) Cytarabine (Cytosine arabinoside; ARA-C) was purchased from Hadassah cytotoxica pharmacy (Israel). ARA-C was provided from Hadassah cytotoxica pharmacy at concentration of 100 mg/ml. Actual dose solution (200 mg/Kg) was prepared by diluting the 100 mg/ml stock solution in PBS.
(§3) Normal C57BL/6 female mice, 9-10 week old, about 20 gram in weight, were used. The animals were kept in groups of a maximum of 10 animals in polysulphone cages (425×266×185 mm), fitted with solid bottoms and filled with wood shavings as bedding material. The animals were provided ad libitum a commercial rodent diet (Harlan Teklad™ Ra/Mouse Diet) and allowed free access to autoclaved water, supplied to each cage via polysulphone bottles with stainless steel sipper-tubes. From the first day of ARA-C dosing wet food was placed at the bottom of the cage. Ten animals were randomly allocated per treatment group.
(§4) The treatments groups were as followed (10 animals per treatment group): • Group A: untreated control. • Group B: animals administered with 4FB-TN14003 at a dose of 2.4, 4.8, 9.6 or 12 mg/Kg daily from day 1 to day 7. • Group C: animals administered with ARA-C at a dose of 200 mg/Kg daily from day 3 to 7. • Group D: animals administered with 4FB-TN14003 as in group B (at a dose of 2.4, 4.8, 9.6 or 12 mg/Kg daily from day 1 to day 7) and also with ARA-C as in group C (at a dose of 200 mg/Kg daily from day 3 to 7).
(§5) 4FB-TN14003 was injected SC at a constant dose volume of 200 μL/mouse (based on the latest determined body weight-average of 20 gr), once daily for 7 consecutive days (days 1-7). Control mice were injected with the vehicle (PBS) only under the same regimen.
(§6) ARA-C was diluted in PBS and injected SC at a constant dose of 200 mg/kg and at constant volume of 200 μL/mouse, once daily for 5 consecutive days (days 3-7). In the combination groups (groups 7-10) ARA-C was injected 4 hours following 4FB-TN14003 injection.
(§7) Blood samples were collected on day 12 of the experiment. The mice in each group were subjected to terminal bleeding from the orbital sinus. Blood samples (ca. 400-500 μl) were dispensed into special serum gel separation tubes (BD Microgard™) centrifuged at 13,000 rpm for 8 minutes at RT and saved the supernatant sera. Sera samples (at least 220 μl) were kept at 2-8° C. to complete blood counts (CBC).

[2] = test system: Normal C57BL/6 female mice; settings: mouse, in vivo
Experimental: as §1, §2, §3, §4, §5, §6, §7

human AML xenografts = settings: subcutaneous injections; Beider et al., Exp. Hematol. 2011; cited from earlier work
[3] = test system: malignant cells of hematopoietic origin including AML; settings: cited from earlier work

Compound	levels of platelets ([1]; ARA-C alone versus ARA-C in combination with 4F-benzoyl-TN14003, FIG. 5)	levels of neutrophil Abs ([1]; ARA-C alone versus ARA-C in combination with 4F-benzoyl-TN14003, FIG. 7)	white blood-cells (WBC) ([1]; compared with untreated control, blood collected day 12 (five days after treatment), ARA-C 200 mg/Kg SC days 3-7, 4F-benzoyl-TN14003 2.4, 4.8, 9.6 or 12 mg/Kg SC days 1-7, FIG. 1)	red blood-cells (RBC) ([1]; compared with untreated control, blood collected day 12, FIG. 2)	hematocrit ([1]; compared with untreated control, blood collected day 12, FIG. 3)	hemoglobin (HGB) ([1]; compared with untreated control, blood collected day 12, FIG. 4)	platelets ([1]; compared with untreated control, blood collected day 12, FIG. 5)	lymphocyte Abs ([1]; compared with untreated control, blood collected day 12, FIG. 6)	neutrophil Abs ([1]; compared with untreated control, blood collected day 12, FIG. 7)	hematocrit [2]	hemoglobin (HGB) [2]	lymphocyte Abs [2]	platelets [2]	red blood-cells (RBC) [2]	growth of human AML xenografts (human AML xenografts)	cytotoxicity toward malignant cells of hematopoietic origin including AML [3]
Nc1ccn([C@@H]2O[C@H](CO)[C@@H](O)[C@@H]2O)c(=O)n1 [ARA-C, Cytarabine]	equally reduced levels	equally reduced levels	drastic reduction	drastic reduction	drastic reduction	drastic reduction	drastic reduction	drastic reduction	drastic reduction	–	–	–	–	–	–	–
4F-benzoyl-Arg-Arg-Nal-Cys-Tyr-Cit-Lys-DLys-Pro-Tyr-Arg-Cit-Cys-Arg-NH2 [4F-benzoyl-TN14003]	–	–	–	–	–	–	–	–	–	did not cause a reduction	did not cause a reduction	did not cause a reduction	did not cause a reduction	did not cause a reduction	significantly reduced	CXCR4-dependent preferential cytotoxicity

— patent publication US20160082071A1, “METHODS OF TREATING MYELOID LEUKEMIA” (BIOKINE THERAPEUTICS LTD., priority 2013, published 2016)
